The NIST ThermoML archive (doi:10.1016/j.jct.2006.03.014)
Numbers after ± are expanded uncertainties.

Test: xn = mol fraction of the nth substance listed
Conditions: 101 kPa, Liquid; for viscosity: Capillary tube (Ostwald / Ubbelohde) method; for mass density: Pycnometric method

CC1OC(C)OC(C)O1 (stereo unspecified) [2,4,6-trimethyl-1,3,5-trioxane] + CCCCOC(C)=O
Conditions	mass density, 298.15 K [kg/m3]	mass density, 303.15 K [kg/m3]	mass density, 308.15 K [kg/m3]	viscosity, 298.15 K [mPa·s]	viscosity, 303.15 K [mPa·s]	viscosity, 308.15 K [mPa·s]
x1 = 0.0186	878.3 ± 1.1	873.2 ± 1.1	868.2 ± 1.1	0.688 ± 0.01	0.637 ± 0.01	0.581 ± 0.009
x1 = 0.0368	880.3 ± 1.1	875.1 ± 1.1	870.1 ± 1.1	0.693 ± 0.01	0.641 ± 0.01	0.586 ± 0.009
x1 = 0.0556	882.3 ± 1.1	877.1 ± 1.1	872 ± 1.1	0.696 ± 0.01	0.646 ± 0.01	0.588 ± 0.009
x1 = 0.0744	884.3 ± 1.1	879.1 ± 1.1	874 ± 1.1	0.697 ± 0.01	0.65 ± 0.01	0.592 ± 0.009
x1 = 0.093	886.3 ± 1.1	881 ± 1.1	875.9 ± 1.1	0.699 ± 0.01	0.653 ± 0.01	0.594 ± 0.01
x1 = 0.1873	896.5 ± 1.2	891.1 ± 1.2	885.7 ± 1.1	0.713 ± 0.01	0.668 ± 0.01	0.612 ± 0.01
x1 = 0.2831	906.9 ± 1.2	901.4 ± 1.2	895.9 ± 1.2	0.728 ± 0.011	0.685 ± 0.01	0.629 ± 0.01
x1 = 0.3807	917.7 ± 1.2	912 ± 1.2	906.4 ± 1.2	0.755 ± 0.011	0.706 ± 0.01	0.649 ± 0.01
x1 = 0.4799	928.6 ± 1.2	922.9 ± 1.2	917.2 ± 1.2	0.786 ± 0.011	0.735 ± 0.011	0.676 ± 0.01
x1 = 0.5802	939.8 ± 1.2	934.1 ± 1.2	928.2 ± 1.3	0.831 ± 0.012	0.771 ± 0.011	0.708 ± 0.01
x1 = 0.6828	951.5 ± 1.3	945.7 ± 1.3	939.7 ± 1.3	0.882 ± 0.012	0.816 ± 0.012	0.746 ± 0.011
x1 = 0.7863	963.2 ± 1.3	957.6 ± 1.3	951.4 ± 1.3	0.945 ± 0.013	0.867 ± 0.012	0.793 ± 0.011
x1 = 0.8924	975.6 ± 1.3	969.9 ± 1.3	963.7 ± 1.3	1.025 ± 0.014	0.933 ± 0.013	0.848 ± 0.012
x1 = 1	988.4 ± 1.3	982.6 ± 1.3	976.4 ± 1.4	1.107 ± 0.015	1.001 ± 0.014	0.907 ± 0.013

CC1OC(C)OC(C)O1 (stereo unspecified) [2,4,6-trimethyl-1,3,5-trioxane] + CCOC(C)=O
Conditions	mass density, 298.15 K [kg/m3]	mass density, 303.15 K [kg/m3]	mass density, 308.15 K [kg/m3]	viscosity, 298.15 K [mPa·s]	viscosity, 303.15 K [mPa·s]	viscosity, 308.15 K [mPa·s]
x1 = 0.0203	896.3 ± 1.2	890 ± 1.2	883.7 ± 1.2	0.435 ± 0.008	0.405 ± 0.008	0.392 ± 0.008
x1 = 0.04	898.7 ± 1.2	892.4 ± 1.2	886 ± 1.2	0.439 ± 0.008	0.411 ± 0.008	0.395 ± 0.008
x1 = 0.0601	901.1 ± 1.2	894.8 ± 1.2	888.5 ± 1.3	0.446 ± 0.008	0.419 ± 0.008	0.4 ± 0.008
x1 = 0.0799	903.5 ± 1.2	897.2 ± 1.3	890.8 ± 1.3	0.451 ± 0.008	0.421 ± 0.008	0.407 ± 0.008
x1 = 0.1002	905.8 ± 1.2	899.6 ± 1.3	893.2 ± 1.3	0.457 ± 0.008	0.428 ± 0.008	0.412 ± 0.008
x1 = 0.1957	916.6 ± 1.2	910.4 ± 1.3	904 ± 1.3	0.491 ± 0.009	0.455 ± 0.008	0.439 ± 0.008
x1 = 0.3	927.8 ± 1.2	921.6 ± 1.3	915.2 ± 1.3	0.53 ± 0.009	0.492 ± 0.008	0.468 ± 0.008
x1 = 0.4	937.9 ± 1.3	931.8 ± 1.3	925.4 ± 1.3	0.567 ± 0.009	0.53 ± 0.009	0.503 ± 0.009
x1 = 0.5001	947.4 ± 1.3	941.3 ± 1.3	935 ± 1.3	0.61 ± 0.009	0.574 ± 0.009	0.539 ± 0.009
x1 = 0.6001	956.4 ± 1.3	950.4 ± 1.3	944.1 ± 1.3	0.663 ± 0.01	0.628 ± 0.01	0.586 ± 0.009
x1 = 0.7	965 ± 1.3	959 ± 1.3	952.7 ± 1.3	0.739 ± 0.011	0.691 ± 0.01	0.639 ± 0.01
x1 = 0.8001	973.1 ± 1.3	967.3 ± 1.3	960.9 ± 1.4	0.832 ± 0.012	0.766 ± 0.011	0.708 ± 0.01
x1 = 0.9	980.9 ± 1.3	975.1 ± 1.3	968.8 ± 1.4	0.947 ± 0.013	0.861 ± 0.012	0.789 ± 0.011
x1 = 1	988.4 ± 1.3	982.6 ± 1.3	976.4 ± 1.4	1.107 ± 0.015	1.001 ± 0.014	0.907 ± 0.013

CC1OC(C)OC(C)O1 (stereo unspecified) [2,4,6-trimethyl-1,3,5-trioxane] + COC(C)=O
Conditions	mass density, 298.15 K [kg/m3]	mass density, 303.15 K [kg/m3]	mass density, 308.15 K [kg/m3]	viscosity, 298.15 K [mPa·s]	viscosity, 303.15 K [mPa·s]	viscosity, 308.15 K [mPa·s]
x1 = 0.0203	928.4 ± 1.3	921.5 ± 1.2	918 ± 1	0.378 ± 0.008	0.359 ± 0.007	0.345 ± 0.007
x1 = 0.0405	930.1 ± 1.3	923.3 ± 1.2	919.7 ± 1.1	0.388 ± 0.008	0.367 ± 0.008	0.35 ± 0.007
x1 = 0.0601	931.8 ± 1.3	925 ± 1.2	921.4 ± 1.1	0.398 ± 0.008	0.373 ± 0.008	0.355 ± 0.007
x1 = 0.0807	933.4 ± 1.3	926.7 ± 1.2	923.1 ± 1.1	0.408 ± 0.008	0.38 ± 0.008	0.359 ± 0.007
x1 = 0.1002	935 ± 1.3	928.4 ± 1.2	924.7 ± 1.1	0.416 ± 0.008	0.386 ± 0.008	0.362 ± 0.008
x1 = 0.201	942.9 ± 1.3	936.6 ± 1.2	932.6 ± 1.1	0.455 ± 0.008	0.41 ± 0.008	0.372 ± 0.008
x1 = 0.3009	950.3 ± 1.3	944.2 ± 1.2	939.8 ± 1.2	0.489 ± 0.009	0.429 ± 0.008	0.374 ± 0.008
x1 = 0.397	956.9 ± 1.3	951 ± 1.2	946.3 ± 1.2	0.522 ± 0.009	0.45 ± 0.009	0.377 ± 0.008
x1 = 0.5001	963.5 ± 1.3	957.7 ± 1.2	952.7 ± 1.2	0.566 ± 0.01	0.481 ± 0.009	0.39 ± 0.008
x1 = 0.7002	974.8 ± 1.3	969.1 ± 1.3	963.5 ± 1.3	0.696 ± 0.011	0.593 ± 0.01	0.479 ± 0.009
x1 = 0.8005	979.8 ± 1.3	974 ± 1.3	968.2 ± 1.3	0.795 ± 0.012	0.688 ± 0.011	0.57 ± 0.01
x1 = 0.9001	984.3 ± 1.3	978.5 ± 1.3	972.5 ± 1.3	0.925 ± 0.013	0.816 ± 0.012	0.704 ± 0.011
x1 = 1	988.4 ± 1.3	982.6 ± 1.3	976.4 ± 1.4	1.107 ± 0.015	1.001 ± 0.014	0.907 ± 0.013
